Experimental data from article PMC10804372, “Degradation by Design: New Cyclin K Degraders from Old CDK Inhibitors” (ACS Chemical Biology, 2024).

Assays:
Cyclin K [1] = assay: Cyclin K levels by Western blot after single-concentration treatment; type: cell-based, human; settings: HEK293T cells, 1 μM for 2 h; for cyclin K degradation: Western blot; for Remaining Cyclin K (%): quantified from Western blots, mean ± SD, three independent experiments
Procedure: (§1) HEK293T human […] kidney cells were cultured in DMEM (Gibco/Life Technologies), containing 25 mM D-glucose, 4 mM L-glutamine, and 1 mM sodium pyruvate, and supplemented with 10% (v/v) FBS and 1% nonessential amino acids (Gibco/Life Technologies). Cells were incubated at 37 °C in a humidified atmosphere with 5% CO2.
(§2) Cells were washed with PBS and lysed (20 mM HEPES pH 7.5, 10% glycerol, 0.4 M KCl, 0.4% Triton X-100, 15 mM EDTA, and 1× protease and phosphatase inhibitors). The insoluble fraction was removed by centrifugation. Protein quantification was performed using a Bradford assay and compared to a BSA calibration curve. Equal amounts of lysates were run on SDS–PAGE 4–12% Bis–Tris Protein Gels (NuPAGE, Thermo Fisher Scientific) and then transferred onto Immobilon-P PVDF Membrane (Millipore, IPVH00010) using a Mini Trans-Blot Cell (Bio-Rad, 1703930). The membranes were blocked with 5% bovine albumin serum (BSA) in Tris-buffered saline with Tween 20 (TBS-T) and incubated with primary antibodies overnight at 4 °C. The membranes were washed three times with TBS-T and incubated with HRP-conjugated secondary antibody (BioRad) for 2 h. Membranes were washed again three times with TBS-T before being developed using Pierce ECL Western Blotting Substrate (Thermo, 32106) and visualized using LI-COR. Antibodies were purchased from Cell Signaling Technology: anti-GAPDH (D4C6R) and anti-DDB1 (D4C8) or Bethyl Laboratories: anti-Cyclin K (A301-939A). The following HRP-linked secondary antibodies were used by dilution in 5% BSA/TBS-T: antirabbit IgG (BioRad, 5213–2504) and antimouse IgG (BioRad, 103005).
(§3) Unedited blots containing the marker lane are available on request. Western blots were quantified using ImageJ. Cyclin K levels were normalized using GAPDH as a loading control. DC50 values were calculated from concentration–response curves using nonlinear regression fit to a 4-parameter curve by GraphPad Prism.

Cyclin K [2] = assay: Cyclin K degradation concentration-response (DC50, DMax) by Western blot; type: cell-based, human; settings: for DMax (%) / DC50: HEK293T, Western blot quantification, 3 biological repeats; for DC50: read-out: CycK DC50; for fold decrease in degradation ability versus pyridine counterpart: furan analogues vs 1 (CR8), 36, 40
Procedure: With the aim of comparing the degradation ability of the new analogues, we derived DC50 values by using Western blotting (Table 5). […] This approach has been previously used to improve the potency of BCL6 degraders.[33] We therefore also measured CDK12 affinity using the KINOMEscan binding assay (Table 5).[34]
as §1, §2, §3

CDK12 = target: T1, CDK12 (Homo sapiens, UniProt Q9NYV4); assay: KINOMEscan binding assay (Eurofins DiscoverX); settings: for Kd: KINOMEscan
T1 construct: purchased Eurofins DiscoverX (KINOMEscan service)
T1 sequence (Q9NYV4 whole entry): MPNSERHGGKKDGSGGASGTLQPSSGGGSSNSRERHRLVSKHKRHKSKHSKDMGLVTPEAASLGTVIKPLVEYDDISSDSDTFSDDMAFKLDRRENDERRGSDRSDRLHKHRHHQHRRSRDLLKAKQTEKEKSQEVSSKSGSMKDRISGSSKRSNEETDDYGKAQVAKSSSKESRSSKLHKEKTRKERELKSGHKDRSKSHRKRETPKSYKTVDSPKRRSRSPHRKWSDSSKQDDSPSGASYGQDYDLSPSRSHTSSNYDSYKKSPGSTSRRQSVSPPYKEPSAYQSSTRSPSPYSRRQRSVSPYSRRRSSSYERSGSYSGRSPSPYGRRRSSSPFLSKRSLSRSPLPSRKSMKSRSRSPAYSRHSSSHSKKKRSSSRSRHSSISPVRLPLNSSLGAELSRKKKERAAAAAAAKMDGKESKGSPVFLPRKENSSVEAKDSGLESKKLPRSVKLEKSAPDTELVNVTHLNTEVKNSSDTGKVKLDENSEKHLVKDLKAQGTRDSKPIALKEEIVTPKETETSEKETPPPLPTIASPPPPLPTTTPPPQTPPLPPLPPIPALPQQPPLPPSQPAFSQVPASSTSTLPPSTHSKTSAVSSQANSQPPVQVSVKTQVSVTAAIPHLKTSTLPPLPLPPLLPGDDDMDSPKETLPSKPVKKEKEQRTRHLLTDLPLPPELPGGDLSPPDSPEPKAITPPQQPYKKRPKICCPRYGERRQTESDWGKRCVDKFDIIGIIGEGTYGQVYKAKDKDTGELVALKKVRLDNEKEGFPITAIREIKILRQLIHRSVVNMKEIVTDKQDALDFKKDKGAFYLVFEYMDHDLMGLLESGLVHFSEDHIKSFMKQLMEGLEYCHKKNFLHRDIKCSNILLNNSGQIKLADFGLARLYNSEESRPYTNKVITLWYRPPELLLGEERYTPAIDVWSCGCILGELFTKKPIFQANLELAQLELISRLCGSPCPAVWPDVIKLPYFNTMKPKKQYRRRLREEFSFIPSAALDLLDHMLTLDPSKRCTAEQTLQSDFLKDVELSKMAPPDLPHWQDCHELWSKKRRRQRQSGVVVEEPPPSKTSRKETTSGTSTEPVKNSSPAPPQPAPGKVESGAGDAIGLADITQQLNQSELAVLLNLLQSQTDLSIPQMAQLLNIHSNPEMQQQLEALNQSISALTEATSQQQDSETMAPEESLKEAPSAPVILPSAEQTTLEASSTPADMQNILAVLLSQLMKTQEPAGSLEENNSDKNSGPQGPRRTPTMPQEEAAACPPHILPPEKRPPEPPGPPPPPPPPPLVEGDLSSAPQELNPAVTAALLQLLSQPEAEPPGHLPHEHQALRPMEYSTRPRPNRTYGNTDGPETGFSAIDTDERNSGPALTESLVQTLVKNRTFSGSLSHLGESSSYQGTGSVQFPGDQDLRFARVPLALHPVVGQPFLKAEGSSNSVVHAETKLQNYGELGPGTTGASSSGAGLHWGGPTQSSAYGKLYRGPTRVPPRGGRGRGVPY

Row | SMILES | cyclin K degradation (Cyclin K [1]) | Remaining Cyclin K (%) (Cyclin K [1]) | further results
1 | CC[C@H](CO)Nc1nc(NCc2ccc(-c3ccccc3)cc2)c2ncn(C(C)C)c2n1 [compound 3] | comparable to that of CR8 | 8 ± 7% | –
2 | CC[C@H](CO)Nc1nc(NCc2ccc(-c3cccnc3)cc2)c2ncn(C(C)C)c2n1 [compound 4] | comparable to that of CR8 | 6 ± 4% | –
3 | CC[C@H](CO)Nc1nc(NCc2ccc(-c3ccncc3)cc2)c2ncn(C(C)C)c2n1 [compound 5] | comparable to that of CR8 | 9 ± 6% | –
4 | CC[C@H](CO)Nc1nc(NCc2ccc(-c3ccc(F)cn3)cc2)c2ncn(C(C)C)c2n1 [compound 6] | reduction in degradation activity | 42 ± 8% | –
5 | CC[C@H](CO)Nc1nc(NCc2ccc(-c3ccc(C)cn3)cc2)c2ncn(C(C)C)c2n1 [compound 7] | abrogated degradation further | 93 ± 6% | –
6 | CC[C@H](CO)Nc1nc(NCc2ccc(-c3ccc(CC(C)C)cc3)cc2)c2ncn(C(C)C)c2n1 [compound 9] | – | 79 ± 22% | –
7 | CC[C@H](CO)Nc1nc(NCc2ccc(-c3ccc(C(=O)NC45CC6CC(CC(C6)C4)C5)cn3)cc2)c2ncn(C(C)C)c2n1 [compound 10] | – | 94 ± 8% | –
8 | CC[C@H](CO)Nc1nc(NCc2ccc(-c3cccc(F)n3)cc2)c2ncn(C(C)C)c2n1 [compound 11] | complete degradation | 2 ± 3% | –
9 | CC[C@H](CO)Nc1nc(NCc2ccc(-c3cccc(C)n3)cc2)c2ncn(C(C)C)c2n1 [compound 12] | complete degradation | 4 ± 4% | DMax (%) (Cyclin K [2]): >95%; DC50 (Cyclin K [2]): 0.106 µM; Kd (CDK12): 0.22 µM
10 | CC[C@H](CO)Nc1nc(NCc2ccc(-c3cc(F)ccn3)cc2)c2ncn(C(C)C)c2n1 [compound 13] | – | 3 ± 2% | –
11 | CC[C@H](CO)Nc1nc(NCc2ccc(-c3cc(C)ccn3)cc2)c2ncn(C(C)C)c2n1 [compound 14] | – | 1 ± 0% | –
12 | CCc1ccnc(-c2ccc(CNc3nc(N[C@H](CC)CO)nc4c3ncn4C(C)C)cc2)c1 [compound 16] | able to successfully induce degradation | 6 ± 4% | –
13 | CC[C@H](CO)Nc1nc(NCc2ccc(-c3cc(C#N)ccn3)cc2)c2ncn(C(C)C)c2n1 [compound 17] | able to successfully induce degradation | 2 ± 2% | –
14 | CC[C@H](CO)Nc1nc(NCc2ccc(-c3ncccc3F)cc2)c2ncn(C(C)C)c2n1 [compound 18] | able to induce degradation | 17 ± 13% | –
15 | CC[C@H](CO)Nc1nc(NCc2ccc(-c3ncccc3C)cc2)c2ncn(C(C)C)c2n1 [compound 19] | reduced degradation ability compared to CR8 | 37 ± 16% | –
16 | CC[C@H](CO)Nc1nc(NCc2ccc(C3=CCCCC3)cc2)c2ncn(C(C)C)c2n1 [compound 22] | partial degradation | 22 ± 5% | –

Row | SMILES | cyclin K degradation (Cyclin K [1]) | Remaining Cyclin K (%) (Cyclin K [1]) | further results
17 | CC[C@H](CO)Nc1nc(NCc2ccc(N3CCNCC3)cc2)c2ncn(C(C)C)c2n1 [compound 24] | significantly reduced degradation ability | 86 ± 20% | –
18 | CC[C@H](CO)Nc1nc(NCc2ccc(C3=CCCC3)cc2)c2ncn(C(C)C)c2n1 [compound 26] | complete cyclin K degradation | 5 ± 4% | –
19 | CC[C@H](CO)Nc1nc(NCc2ccc(C3CCCC3)cc2)c2ncn(C(C)C)c2n1 [compound 27] | only partial degradation | 31 ± 16% | –
20 | CC[C@H](CO)Nc1nc(NCc2ccc(-c3ccoc3)cc2)c2ncn(C(C)C)c2n1 [compound 28] | complete degradation | 2 ± 2% | –
21 | CC[C@H](CO)Nc1nc(NCc2ccc(C)cc2)c2ncn(C(C)C)c2n1 [compound 32] | little to no degradation | 89 ± 8% | –
22 | CC[C@H](CO)Nc1nc(NCc2ccc(Br)cc2)c2ncn(C(C)C)c2n1 [compound 33] | little to no degradation | 73 ± 29% | –
23 | C=Cc1ccc(CNc2nc(N[C@H](CC)CO)nc3c2ncn3C(C)C)cc1 [compound 34] | little to no degradation | 63 ± 22% | –
24 | CCc1ccc(CNc2nc(N[C@H](CC)CO)nc3c2ncn3C(C)C)cc1 [compound 35] | little to no degradation | 90 ± 14% | –
25 | OCCC1CCCCN1c1cc(NCc2ccc(-c3ccccn3)cc2)n2ncc(Br)c2n1 (centres unmarked) [compound 36] | – | 2 ± 1% | improvement in degradation as measured by DC50 versus compound 1 (Cyclin K [2]; 36 vs 1): fivefold; DMax (%) (Cyclin K [2]): >95%; DC50 (Cyclin K [2]): 0.01 µM; fold better CDK12 affinity versus CR8/seliciclib-core analogue (CDK12; 36 vs 1, 37 vs 21): 100 fold; Kd (CDK12): 0.004 µM
26 | Cc1ccnc(-c2ccc(CNc3cc(N4CCCCC4CCO)nc4c(Br)cnn34)cc2)c1 (centres unmarked) [compound 38] | – | 3 ± 4% | –
27 | OCCC1CCCCN1c1cc(NCc2ccc(-c3ccco3)cc2)n2ncc(Br)c2n1 (centres unmarked) [compound 39] | – | 4 ± 4% | DMax (%) (Cyclin K [2]): >95%; DC50 (Cyclin K [2]): 0.072 µM; fold decrease in degradation ability versus pyridine counterpart (Cyclin K [2]): 4–8 fold; Kd (CDK12): 0.017 µM
28 | O=C(NCc1ccc(-c2ccccn2)cc1)c1n[nH]cc1NC(=O)c1c(Cl)cccc1Cl [compound 40] | – | 1 ± 1% | DMax (%) (Cyclin K [2]): >95%; DC50 (Cyclin K [2]): 0.021 µM; fold difference (weaker) in CDK12 binding affinity versus compound 36 (CDK12; 40 vs 36): 250 fold; Kd (CDK12): 1 µM
29 | O=C(NCc1ccc(-c2ccco2)cc1)c1n[nH]cc1NC(=O)c1c(Cl)cccc1Cl [compound 42] | – | 20 ± 14% | DMax (%) (Cyclin K [2]): >95%; DC50 (Cyclin K [2]): 0.168 µM; fold decrease in degradation ability versus pyridine counterpart (Cyclin K [2]): 4–8 fold; Kd (CDK12): 1 µM
30 | OCCC1CCCCN1c1cc(NCc2ccccc2)n2ncc(Br)c2n1 (centres unmarked) [compound 43] | – | – | Kd (CDK12): 0.01 µM
31 | O=C(NCc1ccccc1)c1n[nH]cc1NC(=O)c1c(Cl)cccc1Cl [compound 44] | – | – | Kd (CDK12): 5.5 µM
